Measured values published in patent publication US10106539B2, “Spiro-indolines for the treatment and prophylaxis of respiratory syncytial virus infection (RSV)” (REVIRAL LIMITED, priority 2014, dated 2018).
Where two headings read alike, the source gives them in different places.

Experiments:
Format in all cases: in vitro ADME
[1] = Plasma protein binding (equilibrium dialysis), rat; conditions: plasma (100%)
Procedure: (§1) Protein Binding Determination: Experimental Procedure
(§2) Solutions of test compound (5 μM, 0.5% final DMSO concentration) are prepared in buffer (pH 7.4) and 100% species-specific plasma. The experiment is performed using equilibrium dialysis with the two compartments separated by a semi-permeable membrane. The buffer solution is added to one side of the membrane and the plasma solution to the other side. After equilibration, samples are taken from both sides of the membrane. Standards are prepared in plasma and buffer and are incubated at 37° C.
(§3) Test compound incubations are performed in duplicate. A control compound is included in each experiment.
(§4) The solutions for each batch of compounds are combined into two groups (protein-free and protein-containing), then cassette analysed by LC-MS/MS using two sets of calibration standards for protein-free (7 points) and protein-containing solutions (6 points).

human P-gp (MDR1) = experiment: MDR1-MDCK permeability; conditions: dog
Procedure: MDR1-MDCK Permeability: Experimental Procedure
MDR1-MDCK cells obtained from the NIH (Rockville, Md., USA) are used between passage numbers 6-30. Cells are seeded onto Millipore Multiscreen Transwell plates at 3.4×10^5 cells/cm2. The cells are cultured in DMEM and media is changed on day 3. On day 4 the permeability study is performed. Cell culture and assay incubations are carried out at 37° C. in an atmosphere of 5% CO2 with a relative humidity of 95%. On the day of the assay, the monolayers are prepared by rinsing both basolateral and apical surfaces twice with Hanks Balanced Salt Solution (HBSS) at the desired pH warmed to 37° C. Cells are then incubated with HBSS at the desired pH in both apical and basolateral compartments for 40 min to stabilise physiological parameters.
The dosing solutions are prepared by diluting test compound with assay buffer to give a final test compound concentration of 10 μM (final DMSO concentration of 1% v/v). The fluorescent integrity marker lucifer yellow is also included in the dosing solution. Analytical standards are prepared from test compound DMSO dilutions and transferred to buffer, maintaining a 1% v/v DMSO concentration.
For assessment of A-B permeability, HBSS is removed from the apical compartment and replaced with test compound dosing solution. The apical compartment insert is then placed into a companion plate containing fresh buffer (containing 1% v/v DMSO). For assessment of B-A permeability, HBSS is removed from the companion plate and replaced with test compound dosing solution. Fresh buffer (containing 1% v/v DMSO) is added to the apical compartment insert, which is then placed into the companion plate.
At 60 min the apical compartment inserts and the companion plates are separated and apical and basolateral samples diluted for analysis.
Test compound permeability is assessed in duplicate. Compounds of known permeability characteristics are run as controls on each assay plate.
Test and control compounds are quantified by LC-MS/MS cassette analysis using an 8-point calibration with appropriate dilution of the samples. The starting concentration (C0) is determined from the dosing solution and the experimental recovery calculated from C0 and both apical and basolateral compartment concentrations.
The integrity of the monolayer throughout the experiment is checked by monitoring lucifer yellow permeation using fluorimetric analysis. Lucifer yellow permeation is high if monolayers have been damaged.

[2] = Plasma protein binding (equilibrium dialysis), dog; conditions: plasma (100%)
Procedure: as §1, §2, §3, §4

[3] = Liver microsomal stability, rat; conditions: male, Sprague Dawley
Procedure: Microsomal Incubation: Experimental Procedure
Pooled human liver microsomes (pooled male and female), pooled rat liver microsomes (male Sprague Dawley rats) and pooled dog liver microsomes (male Beagle dog) are purchased from a reputable commercial supplier and stored at −80° C. prior to use.
The final incubation volume is 50 μL. A control incubation is included for each compound tested where 0.1 M phosphate buffer pH 7.4 is added instead of NADPH (minus NADPH). Two control compounds are included with each species. All incubations are performed singularly for each test compound.
The reactions are stopped by transferring 25 μL of incubate to 50 μL methanol at the appropriate time points. The termination plates are centrifuged at 2,500 rpm for 20 min at 4° C. to precipitate the protein. Following protein precipitation, the sample supernatants are combined in cassettes of up to 4 compounds, internal standard is added and samples analysed by LC-MS/MS. From a plot of ln peak area ratio (compound peak area/internal standard peak area) against time, the gradient of the line is determined. Subsequently, half-life and intrinsic clearance are calculated

Compound	fraction unbound at 5 μM ([1]; pH 7.4, Comparative Example 2, read-out: PPB fraction unbound, rat (Table 5))	Papp A→B at 60 min, 10 μM (human P-gp (MDR1))	Papp B→A at 60 min, 10 μM (human P-gp (MDR1))	fraction unbound at 5 μM ([2]; pH 7.4, Comparative Example 2, read-out: PPB fraction unbound, dog (Table 5))	half-life at 3 μM ([3]; pooled liver microsomes, pH 7.4, Comparative Example 2, read-out: Liver Microsomal Stability T1/2, rat (Table 5))	fraction unbound at 5 μM ([1]; pH 7.4, 5 μM, read-out: PPB fraction unbound, rat)	Papp A→B at 60 min, 10 μM (human P-gp (MDR1); A-B, 10 μM, 60 min, read-out: Permeability (Human Pgp transfected) MDCK Papp A-B)	Papp B→A at 60 min, 10 μM (human P-gp (MDR1); B-A, 10 μM, 60 min, read-out: Permeability (Human Pgp transfected) MDCK Papp B-A)	fraction unbound at 5 μM ([2]; pH 7.4, 5 μM, read-out: PPB fraction unbound, dog)	half-life at 3 μM ([3]; pH 7.4, rat liver microsomes, 3 μM compound, read-out: Liver Microsomal Stability T1/2, rat)
CC(C)CCn1c(CN2C(=O)C3(CC3)c3ccccc32)nc2cc(CN)ccc21 [RV039, 1′-((5-(aminomethyl)-1-isopentyl-1H-benzo[d]imidazol-2-yl)methyl)spiro[cyclopropane-1,3′-indolin]-2′-one, reference compound]	0.1	0.42 ×10⁻⁶ cm/s	49 ×10⁻⁶ cm/s	0.1	> 1.58 h					
NCc1ccc2c(c1)nc(CN1C(=O)C3(CC3)c3ccc(F)cc31)n2CCCC(F)(F)F [Example 1, 1′-{[5-(Aminomethyl)-1-(4,4,4-trifluorobutyl)-1H-1,3-benzodiazol-2-yl]methyl}-6′-fluoro-1′,2′-dihydrospiro[cyclopropane-1,3′-indole]-2′-one]						0.52	0.5 ×10⁻⁶ cm/s	73 ×10⁻⁶ cm/s	0.27	1.33 h
